Reference: US6472563B1, “Formoterol tartrate process and polymorph” (Sepracor Inc., priority 2001, dated 2002)

What was measured:
[1] = factor; cited from earlier work
[2] = compared to other salts of R,R-formoterol; cited from earlier work
[3] = Dissolution studies: 17 wt % slurry in 50% aqueous isopropyl alcohol stirred with warming; format: physicochemical; details: listed as form A
Method: Dissolution studies were done on each polymorph. A 17 wt % slurry of the respective solid in 50% aqueous isopropyl alcohol was stirred with warming, and the temperature of dissolution was recorded.

For CCCCCCCCCCCCCCCC(=O)OC[C@@H](NC(=O)C(Cl)Cl)[C@H](O)c1ccc([N+](=O)[O-])cc1 [Chloramphenicol-3-palmitate], the “difference in bio-activity between form A and form B” value [1] is listed as “eight”.

For COc1ccc(C[C@@H](C)NC[C@H](O)c2ccc(O)c(NC=O)c2)cc1.O=C(O)C(O)C(O)C(=O)O [L-(+)-tartrate salt of R,R-formoterol, (R,R)-formoterol L-tartrate], the hygroscopicity [2] is listed as “non-hygroscopic”.

In the case of COc1ccc(C[C@@H](C)NC[C@H](O)c2ccc(O)c(NC=O)c2)cc1.O=C(O)C(O)C(O)C(=O)O [Polymorph A, (R,R)-formoterol L-tartrate], the temperature of dissolution [3] is reported as 65-70 °C.
